Paper PMC9319939, “Siccanin Is a Dual-Target Inhibitor of Plasmodium falciparum Mitochondrial Complex II and Complex III” (Pharmaceuticals, 2022)

Legend:
DLD-1 cells = assay: Mammalian cell cytotoxicity assay, CCK8, 48 h; type: cell-based; conditions: Homo sapiens
Experimental: (§1) Human colorectal adenocarcinoma cells (DLD-1) and Human Dermal Fibroblasts (HDF) cells were obtained from Taiho Pharmaceutical Company (Tokyo, Japan). DLD-1 cells were cultured in RPMI 1640 medium supplemented with 10% (v/v) heat-inactivated fetal bovine serum (FBS) (Gibco; San Diego, CA, USA); HDF cells were cultured in DMEM/F12 medium supplemented with 10% (v/v) heat-inactivated FBS. For both lines, cells were grown under 5% CO2 at 37 °C in an ACI-165D CO2 incubator (ASTEC; Fukuoka, Japan).
(§2) DLD-1 and HDF cells, (2.5 × 10^4 cells/mL) in 96-well plates, were cultured for 24 h. The cells then were washed with phosphate-buffered saline (PBS) and the medium was replaced with fresh medium supplemented with 10% (v/v) FBS. Medium containing siccanin at various concentrations was added to the wells and the cells were cultured for another 48 h. Controls were treated with medium containing 1% (v/v) DMSO and 10% (v/v) FBS. Next, the cells were washed with PBS and the medium was replaced with fresh medium supplemented with 10% (v/v) FBS. An aliquot (10 µL) of CCK8 solution (Cell Counting Kit-8; Dojindo Laboratories; Kumamoto, Japan) was added to each well and the plates were incubated for another 2 h, at which point absorbance at 450 nm was monitored using a SpectraMax® Paradigm spectrophotometer. The EC50 values were calculated using Prism® ver.6.01. The selectivity was calculated as the ratio between DLD-1 or HDF versus P. falciparum IC50s.

HDF cells = assay: Mammalian cell cytotoxicity assay, CCK8, 48 h; type: cell-based; conditions: Homo sapiens
Experimental: as §1, §2

[1] = tested on: Dd2_DDD (eEF2-Y186N mutation); assay: Growth inhibition of Dd2_DDD (DDD107498-resistant); type: cell-based; conditions: Plasmodium falciparum, read-out: Growth inhibition EC50, DDD
Experimental: (§3) P. falciparum 3D7-yDHODH was prepared and maintained as described previously. P. falciparum Dd2, and Dd2-derived mutant strains were kindly provided by David A. Fidock, and maintained at Nagasaki University essentially as described in reference, except without supplementation with WR99210.
(§4) Synchronized ring-form parasites (0.3% parasitemia) were prepared in complete medium containing different concentration of various compounds (at a fixed final DMSO concentration of 0.1% (v/v)) and distributed to 96-well plates at 100 μL/well. After 72 h of incubation, parasite growth was monitored by the previously described lactate dehydrogenase (PfLDH)-based assay method; plates were read using a SpectraMax® Paradigm spectrophotometer (Molecular Devices, Inc.; San Jose, CA, USA). EC50 values were calculated using Prism® ver.6.01 (GraphPad; San Diego, CA, USA). Values are presented as the means of three independent experiments.

P. falciparum Dd2 = assay: Growth inhibition of Dd2 parent; type: cell-based; conditions: Plasmodium falciparum, DD2, read-out: Growth inhibition EC50, Dd2
Experimental: as §3, §4

P. falciparum 3D7 strain = assay: Isobologram analysis with atovaquone and siccanin, PfLDH-based; type: cell-based, Plasmodium falciparum
Experimental: The effect of the combination of atovaquone and siccanin was evaluated using isobologram analysis to evaluate the synergy, additivity, or antagonism between the two compounds [51, 83]. Synchronized ring-form parasites (0.3% parasitemia) were prepared in complete medium containing different concentrations of siccanin and atovaquone (at a fixed final DMSO concentration of 0.2% (v/v)) and distributed to 96-well plates at 100 μL/well. After 72 h of incubation, parasite growth was monitored by the previously described PfLDH-based assay using a SpectraMax® Paradigm spectrophotometer. IC50 values were calculated using Prism® ver.6.01. Data represent the means of three independent experiments, each performed in triplicate. The isobologram analysis was performed as described previously. For each combination assay, IC50s were calculated from each culture of P. falciparum grown in the presence of atovaquone or siccanin alone and in combination of various concentrations of the two compounds. The fractional inhibitory concentration (FIC) value was determined using the following equation: FIC =IC50 of compound in mixture/IC50 of compound alone
The combination index (CI) value was determined using the following equation: CI =IC50 of atovaquone in mixture/IC50 of atovaquone alone+IC50 of siccanin in mixture/IC50 of siccanin alone […]

[2] = tested on: P. falciparum (synchronized ring-form parasites); assay: Assessment of parasite survival, Giemsa-stained smears; type: cell-based, Plasmodium falciparum; conditions: 50 µM siccanin; 16, 24, 32, 48 h
Experimental: Synchronized ring-form parasites (2% parasitemia) were prepared in complete medium containing 50 µM siccanin (at a fixed final DMSO concentration of 0.1% (v/v)) and distributed to 24-well plates at 1 mL/well. After incubation for 16, 24, 32, and 48 h, parasitemia was assessed under the microscope using thin blood smears stained with Giemsa.

## Cc1cc(O)c2c(c1)O[C@@]1(C)CC[C@H]3C(C)(C)CCC[C@]34CO[C@@H]2[C@H]41 [Siccanin]
DLD-1 cells; DLD-1, 48 h, read-out: 50% effective concentration (EC50), growth of DLD-1 cells
  EC50: 34.2 ± 2.73 µM
DLD-1 cells; DLD-1 cells, read-out: Siccanin IC50, Mammal, Growth
  IC50: 34.2 µM
HDF cells; HDF, 48 h, read-out: 50% effective concentration (EC50), growth of HDF cells
  EC50: 16.1 ± 1.21 µM
HDF cells; HDF cells, read-out: Siccanin IC50, Mammal, Growth
  IC50: 16.1 µM
[1]
  EC50: 13.1 µM
P. falciparum Dd2
  EC50: 12.4 µM
P. falciparum 3D7 strain; combination of siccanin and atovaquone, 3D7, 72 h
  Combination index: 1.0
P. falciparum 3D7 strain; isobologram, 3D7
  Combinatory effect with atovaquone: additive effect
[2]
  Live parasites under the microscope: could not detect live parasites
